16 compounds from ChEMBL document CHEMBL1157728, “Novel small molecule bradykinin B1 receptor antagonists. Part 2: 5-membered diaminoheterocycles” (Bioorg Med Chem Lett, 2010) can be followed below.

For one series, the target named is T1, B1 bradykinin receptor (Homo sapiens, UniProt P46663).
T1 sequence (P46663 whole entry): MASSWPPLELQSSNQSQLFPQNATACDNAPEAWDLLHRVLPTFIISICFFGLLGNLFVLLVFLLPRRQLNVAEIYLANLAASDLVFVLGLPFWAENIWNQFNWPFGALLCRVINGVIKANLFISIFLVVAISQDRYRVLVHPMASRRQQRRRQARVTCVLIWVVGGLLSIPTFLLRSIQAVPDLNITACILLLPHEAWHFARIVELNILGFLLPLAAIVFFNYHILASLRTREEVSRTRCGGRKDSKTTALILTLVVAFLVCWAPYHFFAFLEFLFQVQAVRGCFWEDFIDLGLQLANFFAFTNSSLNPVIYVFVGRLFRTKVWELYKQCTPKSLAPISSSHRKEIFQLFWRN
The series can be described thus: Antagonist activity at bradykinin B1 receptor in human IMR90 cells pretreated with IL1-beta assessed as inhibition of DAKD-induced calcium mobilization. In kind it is functional, cell-based, IMR-90. A general note: Calcium flux is commonly read through the fluorescence of an indicator in the cells.

Series [1] is described as follows: Solubility of the compound. In kind it is physicochemical.
Series [2] in a line: Efflux ratio of permeability from basolateral to apical side to apical to basolateral side in human Caco-2 cells. In kind it is ADME, cell-based. On the technique in general: Passage across Caco-2 layers is used to estimate intestinal permeability.
Series [3] in a line: Solubility in aqueous buffer. Format: physicochemical.
Series [4] is described as follows: Solubility in water. In kind it is physicochemical.
Series [5] can be described thus: Metabolic stability in human liver microsomes assessed as compound remaining after 1 hr. Format: ADME, Microsome. Conditions: read-out: Stability. On the technique in general: Microsomes from liver hold many membrane-bound enzymes, among them those of drug oxidation.
The nature of series [6]: Apparent permeability from apical to basolateral side of human Caco-2 cells. Format: ADME, cell-based. Conditions: read-out: permeability.

Converted amounts (≈) assume the structure as drawn.

Consider `CC(=O)Nc1nonc1NCc1ccc(-c2cc(Cl)cc(F)c2-c2noc(C)n2)cc1F`, for which the IC50 (commonly the midpoint of a concentration-inhibition curve) on B1 bradykinin receptor came to 7.7 nM. The concentration in solution in series [1] (solubility) was 21 µM (≈ 9.68 µg/mL).

Take `CC(=O)Nc1nsnc1NCc1ccc(-c2cc(Cl)cc(F)c2-c2noc(C)n2)cc1F`: at B1 bradykinin receptor, the IC50 came out at 1.7 nM.

On to `COc1cc(C(=O)Nn2c(NCc3ccc(-c4cc(Cl)cc(F)c4-c4noc(C)n4)cc3F)nc3ccccc32)on1`, for which the IC50 at B1 bradykinin receptor was determined as 0.7 nM. In addition, the efflux ratio (usually the permeability from basolateral to apical divided by that in the opposite direction, in the common usage) in series [2] is 7.1. Besides, in series [3], the concentration in solution (solubility) came to 14 µM (≈ 8.29 µg/mL).

On to `COc1cc(C(=O)Nn2c(NCc3ccc(-c4cc(Cl)cc(F)c4-c4noc(C)n4)cc3F)nc(C)c2C)on1`, for which the IC50 on B1 bradykinin receptor was determined as 85 nM. Also, the solubility (commonly the concentration that dissolves in the medium under given conditions) in series [4] turned out to be 40 µM (≈ 22.8 µg/mL).

In the case of `COC(=O)c1c(F)cccc1-c1ccc(CN2CCCC2=O)c(F)c1`, the IC50 on B1 bradykinin receptor worked out at 42000 nM.

Take `CC(=O)Nn1ccnc1NCc1ccc(-c2cc(Cl)cc(F)c2-c2noc(C)n2)cc1F`: the IC50 on B1 bradykinin receptor came out at 1.6 nM.

As for `CC(=O)Nn1c(Cl)cnc1NCc1ccc(-c2cc(Cl)cc(F)c2-c2noc(C)n2)cc1F`, on B1 bradykinin receptor, the IC50 stood at 0.3 nM.

Take `COc1cc(C(=O)Nn2ccnc2NCc2ccc(-c3cc(Cl)cc(F)c3-c3noc(C)n3)cc2F)on1`: the IC50 at B1 bradykinin receptor came out at 1.7 nM. For the same compound, the solubility in series [4] was 42 µM (≈ 22.8 µg/mL).

With `CC(=O)Nn1c(NCc2ccc(-c3cc(Cl)cc(F)c3-c3noc(C)n3)cc2F)nc(C)c1C`, at B1 bradykinin receptor, the IC50 came to 180 nM.

In the case of `COc1cc(C(=O)Nc2nsnc2NCc2ccc(-c3cc(Cl)cc(F)c3-c3noc(C)n3)cc2F)on1`, on B1 bradykinin receptor, the IC50 stood at 0.6 nM.

For `COC(=O)c1c(F)cccc1-c1ccc(CNC(C)=O)c(F)c1`, the IC50 on B1 bradykinin receptor turned out to be 35000 nM.

Take `COC(=O)c1c(F)cccc1-c1ccc(CN2Cc3ccccc3C2=O)c(F)c1`: the IC50 at B1 bradykinin receptor came to 6100 nM.

Regarding `COc1cc(C(=O)Nc2nonc2NCc2ccc(-c3cc(Cl)cc(F)c3-c3noc(C)n3)cc2F)on1`, the IC50 on B1 bradykinin receptor was 1 nM. For the same compound, the efflux ratio in series [2] turned out to be 1. The remaining at 1 h in series [5] is 61%. For the same compound, the Papp A→B in series [6] came out at 48 ×10⁻⁶ cm/s. For the same compound, in series [1], the concentration in solution (solubility) was 12 µM (≈ 6.53 µg/mL).

`COc1cc(C(=O)Nc2cn[nH]c2NCc2ccc(-c3cc(Cl)cc(F)c3-c3noc(C)n3)cc2F)on1`: on B1 bradykinin receptor, the IC50 was 3.5 nM.

Turning to `CC(=O)Nn1c(NCc2ccc(-c3cc(Cl)cc(F)c3-c3noc(C)n3)cc2F)nc2ccccc21`, the IC50 on B1 bradykinin receptor worked out at 4.6 nM. The compound also gave a solubility in series [4] of 40 µM (≈ 20.4 µg/mL).

Regarding `COC(=O)c1c(F)cccc1-c1ccc(CNc2nc3ccccc3[nH]2)c(F)c1`, the IC50 at B1 bradykinin receptor was 3500 nM.
